We go through 13 compounds from patent US11274092B2, “Potassium channel inhibitors” (ACESION PHARMA ApS, priority 2016, dated 2022).

Usually IC50 stands for the concentration that gives 50% inhibition.

In the experiment the target is T1, human SK3 channel (hKCa2.3) (Homo sapiens, UniProt Q9UGI6).
T1 construct: expressed in transfected cells
The experiment in a line: Automated whole cell patch-clamp (QPatch 16 HT), inhibition of SK3 current. The class given is cell-based. Conditions: HEK-293 cells stably expressing hKCa2.3; symmetrical K+ solutions, free calcium 400 nM; effects normalized to N-methyl bicuculline. The gist of the method:
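HEK-293 cells stably expressing hKCa2.3, automated whole-cell patch clamp in symmetrical K+ (400 nM free intracellular Ca2+, pH 7.2; external pH 7.4). Held at 0 mV, ramps −80 to +80 mV (200 ms) every 5 s; increasing compound concentrations, currents run-down corrected and normalized to 100 μM N-methyl bicuculline; IC50 reported.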
(In general: The patch-clamp technique gives a direct electrical read-out from membranes.)
Consider `CCN(CCO)C(=O)C(Nc1nc2ccccc2[nH]1)c1cccc(C(F)(F)F)c1` (single isomer, unassigned; (+)) [Example 38b, (+)2-[(1H-1,3-benzodiazol-2-yl)amino]-N-ethyl-N-(2-hydroxyethyl)-2-[3-(trifluoromethyl)phenyl]acetamide], for which the IC50 lay within 10 to 100 µM.
Next, `O=C(CC(Nc1nc2ccccc2[nH]1)c1cccc(C(F)(F)F)c1)NCc1ncco1` (stereo not shown) [Example 18, 3-[(1H-1,3-benzodiazol-2-yl)amino]-N-[(1,3-oxazol-2-yl)methyl]-3-[3-(trifluoromethyl)phenyl]propanamide]: less than 10 µM; `CCN(CCO)C(=O)CC(Nc1nc2ccccc2[nH]1)c1ccc(F)c(C)c1` (single isomer, unassigned; (-)) [Example 39a, (−)3-[(1H-1,3-benzodiazol-2-yl)amino]-N-ethyl-3-(4-fluoro-3-methylphenyl)-N-(2-hydroxyethyl)propanamide]: less than 10 µM.
Next, `COCCNC(=O)CC(Nc1nc2ccccc2[nH]1)c1cccc(C(F)(F)F)c1` (stereo not shown) [Example 42, 3-[(1H-1,3-benzodiazol-2-yl)amino]-N-(2-methoxyethyl)-3-[3-(trifluoromethyl)phenyl]propanamide]: less than 10 µM; `O=C(CC(Nc1nc2ccccc2[nH]1)c1cccc(C(F)(F)F)c1)NCC1CCCO1` (stereo not shown) [Example 8, 3-[(1H-1,3-benzodiazol-2-yl)amino]-N-(oxolan-2-ylmethyl)-3-[3-(trifluoromethyl)phenyl]propanamide]: less than 10 µM; `CC(C)(O)CNC(=O)CC(Nc1nc2ccccc2[nH]1)c1cccc(C(F)(F)F)c1` (single isomer, unassigned; (-)) [Example 4a, (−) 3-[(1H-1,3-benzodiazol-2-yl)amino]-N-(2-hydroxy-2-methylpropyl)-3-[3-(trifluoromethyl)phenyl]propanamide]: 10 to 100 µM.
The figure for `CCN(CC(N)=O)C(=O)CC(Nc1nc2c(CO)cccc2[nH]1)c1cccc(C(F)(F)F)c1` (stereo not shown) [Example 54, N-(carbamoylmethyl)-N-ethyl-3-{[4-(hydroxymethyl)-1H-1,3-benzodiazol-2-yl]amino}-3-[3-(trifluoromethyl)phenyl]propanamide] is less than 10 µM; for `CCN(CCO)C(=O)C(Nc1nc2ccccc2[nH]1)c1cccc(C(F)(F)F)c1` (stereo not shown) [Example 38, 2-[(1H-1,3-benzodiazol-2-yl)amino]-N-ethyl-N-(2-hydroxyethyl)-2-[3-(trifluoromethyl)phenyl]acetamide] it is less than 10 µM.
Regarding `O=C(CC(Nc1nc2ccccc2[nH]1)c1cccc(C(F)(F)F)c1)NCc1ccon1` (stereo not shown) [Example 71, 3-[(1H-1,3-benzodiazol-2-yl)amino]-N-(1,2-oxazol-3-ylmethyl)-3-[3-(trifluoromethyl)phenyl]propanamide], the IC50 was less than 10 µM.
The figure for `CN(CC#N)C(=O)CC(Nc1nc2ccccc2[nH]1)c1cccc(C(F)(F)F)c1` (stereo not shown) [Example 56, 3-[(1H-1,3-benzodiazol-2-yl)amino]-N-(cyanomethyl)-N-methyl-3-[3-(trifluoromethyl)phenyl]propanamide] is less than 10 µM.
Next, `O=C(CC(Nc1nc2ccccc2[nH]1)c1cccc(C(F)(F)F)c1)N1CCC[C@@H](O)C1` (stereo partly drawn) [Example 13, 3-[(1H-1,3-benzodiazol-2-yl)amino]-1-[(3R)-3-hydroxypiperidin-1-yl]-3-[3-(trifluoromethyl)phenyl]propan-1-one]: 10 to 100 µM; `COCCNC(=O)CC(Nc1nc2ccccc2[nH]1)c1cccc(OC(F)(F)F)c1` (stereo not shown) [Example 84, 3-[(1H-1,3-benzodiazol-2-yl)amino]-N-(2-methoxyethyl)-3-[3-(trifluoromethoxy)phenyl]propanamide]: less than 10 µM.
Next, `O=C(CC(Nc1nc2ccccc2[nH]1)c1cccc(C(F)(F)F)c1)N1CCC(O)CC1` (stereo not shown) [Example 5, 3-[(1H-1,3-benzodiazol-2-yl)amino]-1-(4-hydroxypiperidin-1-yl)-3-[3-(trifluoromethyl)phenyl]propan-1-one]: 10 to 100 µM.
